The target of one experiment is T1, KRas^G12C (Homo sapiens, UniProt P01116, G12C).
T1 construct: Biotinylated KRas (corresponding to amino acids 1-169, produced at Accelegan Inc.); biotin (biotinylated); purchased Accelegan Inc
The experiment is described as follows: KRas TR-FRET tracer displacement binding assay, G12C. As to conditions: 60-minute incubation. The method, then: (§1) KRas^WT, KRas^G12A, KRas^G12C, KRas^G12D, KRas^G12R, KRas^G12S, KRas^G12V, KRas^G13D, or KRas^Q61H was used in the assay.
(§2) The ability of a compound to bind to KRas was measured using a TR-FRET displacement assay. Biotinylated KRas (corresponding to amino acids 1-169, produced at Accelegan Inc.) was incubated with custom made Cy5 labelled tracer, terbium streptavidin (Cisbio Inc.) and compound (1% DMSO final) in buffer (50 mM HEPES, pH 7.5, 5 mM MgCl2, 0.005% Tween-20 and 1 mM DTT). After a 60-minute incubation at room temperature, the reaction was measured using a BMG LABTECH CLARIO star Plus via TR-FRET.
(In general: Time-resolved FRET reads energy transfer from a long-lived donor to a nearby acceptor.)

In another experiment the target is T2, KRas^WT (Homo sapiens, UniProt P01116).
T2 construct: Biotinylated KRas (corresponding to amino acids 1-169, produced at Accelegan Inc.); biotin (biotinylated); purchased Accelegan Inc
The experiment is described as follows: KRas TR-FRET tracer displacement binding assay, WT. Particulars: 60-minute incubation. The method, then:
as §1, §2

Another experiment addresses T3, KRas^G12D (Homo sapiens, UniProt P01116, G12D).
T3 construct: Biotinylated KRas (corresponding to amino acids 1-169, produced at Accelegan Inc.); biotin (biotinylated); purchased Accelegan Inc
The experiment is described as follows: KRas TR-FRET tracer displacement binding assay, G12D. As to conditions: 60-minute incubation. The method, then: as §1, §2

A further experiment addresses T4, KRas^G12S (Homo sapiens, UniProt P01116, G12S).
T4 construct: Biotinylated KRas (corresponding to amino acids 1-169, produced at Accelegan Inc.); biotin (biotinylated); purchased Accelegan Inc
Description: KRas TR-FRET tracer displacement binding assay, G12S. As to conditions: 60-minute incubation. The method, then:
as §1, §2

The next experiment addresses T5, KRas^G12V (Homo sapiens, UniProt P01116, G12V).
T5 construct: Biotinylated KRas (corresponding to amino acids 1-169, produced at Accelegan Inc.); biotin (biotinylated); purchased Accelegan Inc
The experiment is described as follows: KRas TR-FRET tracer displacement binding assay, G12V. Particulars: 60-minute incubation. The procedure: as §1, §2

The test system of experiment [1] is KRas-mediated Phosphorylation of ERK in H358 cells. Description: Cisbio HTRF pERK assay, H358 cells. As to conditions: H358 cells, 3 hrs compound, read-out: Inhibition (HTRF IC50 nM) of KRas-mediated Phosphorylation of ERK, H358. Format: cell-based.
The subject of experiment [2] is KRas-mediated Phosphorylation of ERK in A549 cells. Description: Cisbio HTRF pERK assay, A549 cells. In kind it is cell-based. Particulars: A549 cells, 3 hrs compound, read-out: Inhibition (HTRF IC50 nM) of KRas-mediated Phosphorylation of ERK, A549.
The test system of experiment [3] is KRas-mediated Phosphorylation of ERK in H727 cells. The experiment is described as follows: Cisbio HTRF pERK assay, H727 cells. Format: cell-based. As to conditions: 3 hrs compound, read-out: Inhibition (HTRF IC50 nM) of KRas-mediated Phosphorylation of ERK, H727.
Experiment [4] deals with KRas-mediated Phosphorylation of ERK in AsPC-1 cells. The experiment is described as follows: Cisbio HTRF pERK assay, AsPC-1 cells. Particulars: 3 hrs compound, read-out: Inhibition (HTRF IC50 nM) of KRas-mediated Phosphorylation of ERK, AsPC-1. In kind it is cell-based.
Experiment [5] concerns KRas-mediated Phosphorylation of ERK in HCT116 cells. Description: Cisbio HTRF pERK assay, HCT116 cells. Format: cell-based. Particulars: HCT116 cells, 3 hrs compound, read-out: Inhibition (HTRF IC50 nM) of KRas-mediated Phosphorylation of ERK, HCT116.
Experiment [6] relates to KRas-mediated Phosphorylation of ERK in H460 cells. The experiment is described as follows: Cisbio HTRF pERK assay, H460 cells. Format: cell-based. Particulars: H460 cells, 3 hrs compound, read-out: Inhibition (HTRF IC50 nM) of KRas-mediated Phosphorylation of ERK, H460.
Experiment [7] concerns KRas-mediated Phosphorylation of ERK in PSN1 cells. The experiment is described as follows: Cisbio HTRF pERK assay, PSN1 cells. In kind it is cell-based. As to conditions: 3 hour compound, read-out: Inhibition (HTRF IC50 nM) of KRas-mediated Phosphorylation of ERK, PSN1. The method, then:
Inhibition of KRas Phosphorylation of ERK (HTRF) by Exemplary Compounds of Formula (I) • Cisbio HTRF Advanced pERK Assay Catalog #64AERPEH • Cell: MKN1, PSN1 • Procedure: • Day 1: Seed 6,000 cells/well −25 μl/well in 384-well white solid bottom plate; RPM1_10% FBS.

Structures are written as SMILES. Read-outs that look alike come from different tables or passages of the source.

T3 sequence (P01116 1-169 isoform P01116-2 G12D): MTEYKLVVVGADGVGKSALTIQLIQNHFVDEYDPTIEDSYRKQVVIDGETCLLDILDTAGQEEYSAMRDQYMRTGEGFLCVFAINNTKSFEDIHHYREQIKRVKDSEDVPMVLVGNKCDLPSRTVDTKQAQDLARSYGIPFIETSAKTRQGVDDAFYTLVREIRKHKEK
T2 sequence (P01116 1-169 isoform P01116-2): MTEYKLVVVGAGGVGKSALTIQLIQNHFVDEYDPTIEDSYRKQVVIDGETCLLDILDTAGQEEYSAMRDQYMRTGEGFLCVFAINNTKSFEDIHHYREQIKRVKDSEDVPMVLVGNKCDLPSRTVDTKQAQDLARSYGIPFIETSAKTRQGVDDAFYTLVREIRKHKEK
T5 sequence (P01116 1-169 isoform P01116-2 G12V): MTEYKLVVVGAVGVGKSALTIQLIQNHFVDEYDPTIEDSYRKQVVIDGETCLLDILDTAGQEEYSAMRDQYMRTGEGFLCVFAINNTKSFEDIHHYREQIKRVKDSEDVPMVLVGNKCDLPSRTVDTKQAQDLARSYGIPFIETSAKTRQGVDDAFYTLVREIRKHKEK
T4 sequence (P01116 1-169 isoform P01116-2 G12S): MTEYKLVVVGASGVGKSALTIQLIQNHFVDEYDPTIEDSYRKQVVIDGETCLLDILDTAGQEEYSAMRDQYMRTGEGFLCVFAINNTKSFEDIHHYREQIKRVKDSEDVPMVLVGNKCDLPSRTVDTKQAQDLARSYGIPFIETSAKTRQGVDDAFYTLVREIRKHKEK
T1 sequence (P01116 1-169 isoform P01116-2 G12C): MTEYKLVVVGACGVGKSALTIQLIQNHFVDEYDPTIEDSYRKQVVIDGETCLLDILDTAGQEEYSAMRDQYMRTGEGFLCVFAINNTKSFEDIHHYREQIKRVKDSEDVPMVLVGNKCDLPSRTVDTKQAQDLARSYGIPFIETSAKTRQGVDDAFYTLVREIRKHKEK

Usually IC50 stands for the concentration at which inhibition is half-maximal. For the compound `CC1CN(C)CCCN1c1nc(N(C)C)c2cc(Cl)c(-c3ccc(F)c4sc(N)c(C#N)c34)c(F)c2n1` (stereo not shown) [Example 217, 2-amino-4-(6-chloro-2-(2,4-dimethyl-1,4-diazepan-1-yl)-4-(dimethylamino)-8-fluoroquinazolin-7-yl)-7-fluorobenzo[b]thiophene-3-carbonitrile], the IC50 was 184 nM on KRas^G12C; 251 nM on KRas^WT; 959 nM at KRas^G12D; 275 nM on KRas^G12S; 75 nM at KRas^G12V.

As to `N#Cc1c(N)sc2c(F)ccc(-c3c(Cl)cc4c(N5CCCOC6CC65)nc(OC[C@@]56CCCN5C[C@H](F)C6)nc4c3F)c12` (single isomer, unassigned) [Example 212], the IC50 was found to be 6 nM at KRas^G12C; 6 nM on KRas^WT; 14 nM at KRas^G12D; 6 nM on KRas^G12S; 22 nM in experiment [1]; 76 nM in experiment [2]. The IC50 in experiment [3] turned out to be 357 nM; at KRas^G12V it was 11 nM; in experiment [4], 230 nM.

`C[C@@]1(O)CCCN(c2nc(OC[C@@]34CCCN3C[C@H](F)C4)nc3c(F)c(-c4ccc(F)c5sc(N)c(C#N)c45)c(F)cc23)C1` [Example 198, 2-amino-4-(6,8-difluoro-2-(((2R,7aS)-2-fluorotetrahydro-1H-pyrrolizin-7a(5H)-yl)methoxy)-4-((R)-3-hydroxy-3-methylpiperidin-1-yl)quinazolin-7-yl)-7-fluorobenzo[b]thiophene-3-carbonitrile]: the IC50 turned out to be 12 nM at KRas^G12C; 7 nM on KRas^WT; 9 nM on KRas^G12D; 11 nM on KRas^G12S; 275 nM in [5] (Homo sapiens, HCT-116, 3 h); 125 nM in [1] (Homo sapiens, NCI-H358, 3 h). Besides, the IC50 stood at 326 nM in experiment [2] (Homo sapiens, A549, 3 h); 717 nM in experiment [3] (Homo sapiens, NCI-H727, 3 h); 13 nM on KRas^G12V; 253 nM in [4] (Homo sapiens, ASPC1, 3 h); 170 nM in experiment [6] (Homo sapiens, NCI-H460, 3 h).

In the case of `N#Cc1c(N)sc2c(F)ccc(-c3c(Cl)cc4c(N5CCCOC6CC65)nc(OC[C@@]56CCCN5C[C@H](F)C6)nc4c3F)c12` (single isomer, unassigned) [Example 213], the IC50 stood at 8 nM at KRas^G12C; 11 nM at KRas^WT; 9 nM at KRas^G12D; 5 nM at KRas^G12S; 160 nM in experiment [1]; 398 nM in experiment [2]. In addition, the IC50 in [3] came to 767 nM; at KRas^G12V it was 4 nM; in [4], 761 nM.

Take `C=Cc1cc2c(N3CCCn4nc(C(=O)N(C)C)cc4C3)nc(OC[C@@]34CCCN3C[C@H](F)C4)nc2c(F)c1-c1ccc(F)c2sc(N)c(C#N)c12` [Example 176, 5-(7-(2-amino-3-cyano-7-fluorobenzo[b]thiophen-4-yl)-8-fluoro-2-(((2R,7aS)-2-fluorotetrahydro-1H-pyrrolizin-7a(5H)-yl)methoxy)-6-vinylquinazolin-4-yl)-N,N-dimethyl-5,6,7,8-tetrahydro-4H-pyrazolo[1,5-a][1,4]diazepine-2-carboxamide]: the IC50 on KRas^G12C was less than 2 nM; at KRas^WT it was less than 2 nM; at KRas^G12D, less than 2 nM; at KRas^G12S it was less than 2 nM; in [5] (Homo sapiens, HCT-116, 3 h) it was 135 nM; in experiment [1] (Homo sapiens, NCI-H358, 3 h), 8 nM. Further, the IC50 in experiment [2] (Homo sapiens, A549, 3 h) is 72 nM; in experiment [3] (Homo sapiens, NCI-H727, 3 h) it was 23 nM; at KRas^G12V it was less than 2 nM; in [4] (Homo sapiens, ASPC1, 3 h), 10 nM; in experiment [6] (Homo sapiens, NCI-H460, 3 h), 101 nM.

For the compound `CN(c1nc(OC[C@@]23CCCN2C[C@H](F)C3)nc2c(F)c(-c3ccc(F)c4sc(N)c(C#N)c34)c(Cl)cc12)C1CC1` [Example 203, 2-amino-4-(6-chloro-4-(cyclopropyl(methyl)amino)-8-fluoro-2-(((2R,7aS)-2-fluorotetrahydro-1H-pyrrolizin-7a(5H)-yl)methoxy)quinazolin-7-yl)-7-fluorobenzo[b]thiophene-3-carbonitrile], the IC50 in [7] (Homo sapiens, PSN1, 3 h) was determined as 4790 nM; in [5] (Homo sapiens, HCT-116, 3 h) it was 661 nM; in experiment [1] (Homo sapiens, NCI-H358, 3 h) it was 82 nM; in [2] (Homo sapiens, A549, 3 h), 307 nM; in [3] (Homo sapiens, NCI-H727, 3 h) it was 226 nM; in experiment [4] (Homo sapiens, ASPC1, 3 h), 501 nM. For the same compound, the IC50 in experiment [6] (Homo sapiens, NCI-H460, 3 h) was found to be 306 nM.

Turning to `N#Cc1c(N)sc2c(F)ccc(-c3c(Cl)cc4c(N5CCCCC(=O)C5)nc(OC[C@@]56CCCN5C[C@H](F)C6)nc4c3F)c12` [Example 191, 2-amino-4-(6-chloro-8-fluoro-2-(((2R,7aS)-2-fluorotetrahydro-1H-pyrrolizin-7a(5H)-yl)methoxy)-4-(3-oxoazepan-1-yl)quinazolin-7-yl)-7-fluorobenzo[b]thiophene-3-carbonitrile], the IC50 came to 798 nM in experiment [7] (Homo sapiens, PSN1, 3 h); 11 nM in experiment [5] (Homo sapiens, HCT-116, 3 h); 2 nM in experiment [1] (Homo sapiens, NCI-H358, 3 h); 11 nM in experiment [2] (Homo sapiens, A549, 3 h); 12 nM in experiment [3] (Homo sapiens, NCI-H727, 3 h); 8 nM in experiment [4] (Homo sapiens, ASPC1, 3 h). Besides, the IC50 in [6] (Homo sapiens, NCI-H460, 3 h) amounted to 10 nM.

Take `C=C1CN2CCC[C@]2(COc2nc(N3CC4CCC(C3)N4)c3cc(Cl)c(-c4ccc(F)c5sc(N)c(C#N)c45)c(F)c3n2)C1` [Example 182, (R)-4-(4-((1R,5S)-3,8-diazabicyclo[3.2.1]octan-3-yl)-6-chloro-8-fluoro-2-(((R)-2-methylenetetrahydro-1H-pyrrolizin-7a(5H)-yl)methoxy)quinazolin-7-yl)-2-amino-7-fluorobenzo[b]thiophene-3-carbonitrile]: the IC50 was determined as 1820 nM in experiment [7]; 114 nM in experiment [5]; 136 nM in experiment [1]; 377 nM in experiment [2]; 1390 nM in [3]; 4 nM in experiment [4]. Moreover, the IC50 in experiment [6] turned out to be 207 nM.

Turning to `CC(Oc1nc(N(C)C)c2cc(F)c(-c3ccc(F)c4sc(N)c(C#N)c34)c(F)c2n1)C12CCCN1CCC2` (single isomer, unassigned; isomer 1) [Example 177, 2-amino-4-(4-(dimethylamino)-6,8-difluoro-2-(1-(tetrahydro-1H-pyrrolizin-7a(5H)-yl)ethoxy)quinazolin-7-yl)-7-fluorobenzo[b]thiophene-3-carbonitrile (isomer 1)], the IC50 amounted to 36 nM at KRas^G12C; 40 nM on KRas^WT; 107 nM at KRas^G12D; 42 nM on KRas^G12S; 18 nM at KRas^G12V.

Regarding `CC(Oc1nc(N(C)C)c2cc(F)c(-c3ccc(F)c4sc(N)c(C#N)c34)c(F)c2n1)C12CCCN1CCC2` (single isomer, unassigned; isomer 2) [Example 178, 2-amino-4-(4-(dimethylamino)-6,8-difluoro-2-(1-(tetrahydro-1H-pyrrolizin-7a(5H)-yl)ethoxy)quinazolin-7-yl)-7-fluorobenzo[b]thiophene-3-carbonitrile (isomer 2)], the IC50 at KRas^G12C worked out at 20 nM; on KRas^WT, 17 nM; at KRas^G12D, 92 nM; on KRas^G12S, 28 nM; on KRas^G12V it was 10 nM.
